# Values quoted from earlier work as cited in US20150218090A1, “DOSAGE REGIMEN FOR AN S1P RECEPTOR MODULATOR OR AGONIST” (NOVARTIS AG, priority 2011, published 2015).
# Conditions: administration of 1.25 mg of FTY720; healthy subjects
smiles,measurement,value
"CCCCCCCCc1ccc(CCC(N)(CO)CO)cc1 [FTY720, 2-amino-2-[2-(4-octylphenyl)ethyl]propane-1,3-diol]",decrease in heart rate,approximately 8 beats/min
